Results: patent US7053057B2, “Caspase inhibitors and uses thereof” (Vertex Pharmaceuticals Incorporated, priority 2000, dated 2006)
Square brackets hold non-standard residues; d marks the D form. Peptide text beside a SMILES is read from it. * marks the point of attachment. Cbz = O=C(OCc1ccccc1)*; Thz = O=C(O)[CH]1CSCN1; CH2F = FC*

Experiments:
[1] = target: T1, recombinant, purified human Caspase-1 (Homo sapiens, UniProt P29466); experiment: Caspase-1 enzyme inhibition assay (fluorogenic substrate cleavage); assay type: biochemical; conditions: second order rate constant of enzyme inactivation; substrate Acetyl-Tyr-Val-Ala-Asp-amino-4-methylcoumarin
T1 sequence (P29466 120-297 limits assumed): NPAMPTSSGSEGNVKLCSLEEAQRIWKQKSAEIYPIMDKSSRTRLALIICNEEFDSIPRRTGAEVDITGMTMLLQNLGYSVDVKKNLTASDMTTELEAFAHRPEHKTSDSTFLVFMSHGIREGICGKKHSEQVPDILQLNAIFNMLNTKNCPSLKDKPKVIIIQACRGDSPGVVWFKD
T1 sequence (P29466 317-404 limits assumed): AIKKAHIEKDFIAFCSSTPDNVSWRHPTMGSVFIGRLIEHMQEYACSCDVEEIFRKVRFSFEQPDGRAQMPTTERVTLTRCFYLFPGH
From the text: (§1) The assays for caspase inhibition are based on the cleavage of a fluorogenic substrate by recombinant, purified human Caspases -1, -3, or -8. The assays are run in essentially the same way as those reported by Garcia-Calvo et al. (J. Biol. Chem. 273 (1998), 32608–32613), using a substrate specific for each enzyme. The substrate for Caspase-1 is Acetyl-Tyr-Val-Ala-Asp-amino-4-methylcoumarin (SEQ ID NO:1). The substrate for Caspases -3, and -8 is Acetyl-Asp-Glu-Val-Asp-amino-4-methylcoumarin (SEQ ID NO:2).
(§2) The observed rate of enzyme inactivation at a particular inhibitor concentration, kobs, is computed by direct fits of the data to the equation derived by Thornberry et al. (Biochemistry 33 (1994), […]) using a nonlinear least-squares analysis computer program (PRISM 2.0; GraphPad software). To obtain the second order rate constant, kinact, kobs values are plotted against their respective inhibitor concentrations and kinact values are subsequently calculated by computerized linear regression.

[2] = test system: cortical neurons; experiment: Hypoxia-induced apoptosis of cortical neurons assay; assay type: cell-based, Wistar rat; conditions: Cortical neurone; rat embryo cortical neurons, hypoxia 42 hours, DNA fragmentation ELISA
Protocol: Apoptosis can be induced by growth factor withdrawal and by hypoxia. This assay measures the extent of DNA fragmentation indicating the effectiveness of caspase inhibitors to prevent apoptosis. Experimental Procedure Cortical neurons were dissociated from Wistar rat embryos (E17) by a modification of the procedure of Rogers et al 1997, Brain Res Bulletin 44:131. Cerebral cortices were isolated aseptically from 15–20 Wistar rat embryos. A cell suspension was prepared by mincing the cerebral cortices and digesting them with papain. Cells were washed with ovomucoid enzyme inhibitor and DNaseI and plated onto Poly D lysine coated plates in high glucose DMEM containing 10% heat-inactivated foetal calf serum, L-glutamine, penicillin and streptomycin. The yield of neurons was 10^7 per embryo and they were 80–90% viable as assessed by Trypan blue exclusion.
Cells were seeded at 1×10^6 cells per cm^2 in 96-well plates and cultured in complete medium (in high glucose DMEM containing 10% heat-inactivated foetal calf serum, L-glutamine, penicillin and streptomycin) at 37° C. in a normal atmosphere for 48 hours prior to the hypoxia experiments. Hypoxia was performed as described (Tamatani et al.1998, Molecular Brain Research, 58:27). The normal cell medium was replaced by hypoxic medium and cells were incubated in an atmosphere of 95% N2/5% CO2 for 42 hours. For compound testing, compounds were dissolved in DMSO at 100 mM then diluted in medium and added to the culture at the beginning of the hypoxic period. Apoptosis was measured using an ELISA assay to detect DNA fragmentation (Roche). Controls included cells cultured in aerobic conditions in serum-containing medium.

[3] = target: recombinant, purified human Caspase-8 (Homo sapiens, UniProt Q14790); experiment: Caspase-8 enzyme inhibition assay (fluorogenic substrate cleavage); assay type: biochemical; conditions: second order rate constant of enzyme inactivation; substrate Acetyl-Asp-Glu-Val-Asp-amino-4-methylcoumarin
recombinant, purified human Caspase-8, sequence (Q14790 217-374 limits assumed): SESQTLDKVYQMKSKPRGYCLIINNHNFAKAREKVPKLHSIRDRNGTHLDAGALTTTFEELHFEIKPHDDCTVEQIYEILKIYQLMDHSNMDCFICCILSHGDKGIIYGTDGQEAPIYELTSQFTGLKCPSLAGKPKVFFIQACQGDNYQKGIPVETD
recombinant, purified human Caspase-8, sequence (Q14790 385-479 limits assumed): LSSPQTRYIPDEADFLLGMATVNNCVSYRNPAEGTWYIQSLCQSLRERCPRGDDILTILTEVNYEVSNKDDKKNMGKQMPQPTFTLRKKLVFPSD
From the text: as §1, §2

[4] = test system: IL-1β secretion from PBMC; experiment: Inhibition of IL-1β secretion from mixed population of PBMC; assay type: cell-based; conditions: human PBMC, LPS 50 ng/ml, 16–18 h, mature IL-1β in supernatant
Protocol: Processing of pre-IL-1β by caspase-1 can be measured in cell culture using a variety of cell sources. Human PBMC obtained from healthy donors provides a mixed population of lymphocyte and mononuclear cells that produce a spectrum of interleukins and cytokines in response to many classes of physiological stimulators.
The test compound is dissolved in Dimethyl Sulphoxide (DMSO,Sigma #D-2650) to give a 100 mM stock solution. This is diluted in complete medium consisting of RPMI containing 10% heat inactivated FCS (Gibco BRL #10099-141), 2 mM L-Glutamine (Sigma, #G-7513), 100U penicillin and 100 μg/ml streptomycin (Sigma #P-7539). The final concentration range of test compound is from 100 μM down to 6 nM over eight dilution steps. The highest concentration of test compound is equivalent to 0.1% DMSO in the assay.
Human PBMC are isolated from Buffy Coats obtained from the blood bank using centrifugation on Ficoll-Paque leukocyte separation medium (Amersham, #17-1440-02) and the cellular assay is performed in a sterile 96 well flat-bottomed plate (Nunc). Each well contains 100 μl of the cell suspension, 1×10^5 cells, 50 µl of compound dilutions and 50 μl of LPS (Sigma #L-3012) at 50 ng/ml final concentration. Controls consist of cells +/−LPS stimulation and a serial dilution of DMSO diluted in the same way as compound. The plates are incubated for 16–18 h at 37° C. in 5% CO2 & 95% humidity atmosphere.
After 16–18 h the supernatants are harvested after centrifuging the plates at 100×g at 18° C. for 15 min and assayed for their IL-1β content. Measurement of mature IL-1[…] in the supernatant is performed using the Quantikine kits (R&D Systems) according to manufacturer's instructions. Mature IL-1β levels of about 600–1500 pg/ml are observed for PBMCs in positive control wells.
The inhibitory potency of the compounds can be represented by an IC50 value, which is the concentration of inhibitor at which 50% of the mature IL-1β is detected in the supernatant as compared to the positive controls.

[5] = target: T2, recombinant, purified human Caspase-3 (Homo sapiens, UniProt P42574); experiment: Caspase-3 enzyme inhibition assay (fluorogenic substrate cleavage); assay type: biochemical; conditions: second order rate constant of enzyme inactivation; substrate Acetyl-Asp-Glu-Val-Asp-amino-4-methylcoumarin
T2 sequence (P42574 29-175 limits assumed): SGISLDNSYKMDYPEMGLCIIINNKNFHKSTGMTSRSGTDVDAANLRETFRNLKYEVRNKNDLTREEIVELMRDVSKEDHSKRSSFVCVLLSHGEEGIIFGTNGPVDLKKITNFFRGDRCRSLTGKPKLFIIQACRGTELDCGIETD
T2 sequence (P42574 176-277 limits assumed): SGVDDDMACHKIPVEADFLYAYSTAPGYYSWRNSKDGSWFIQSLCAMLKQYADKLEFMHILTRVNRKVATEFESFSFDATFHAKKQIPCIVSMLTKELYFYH
From the text: The assays for caspase inhibition are based on the cleavage of a fluorogenic substrate by recombinant, purified human Caspases -1, -3, or -8.
To obtain the second order rate constant, kinact, kobs values are plotted against their respective inhibitor concentrations and kinact values are subsequently calculated by computerized linear regression.

| SMILES | C-1 Kinact [1] | IC50 [2] | C-8 Kinact [3] | IC50 [4] | C-3 Kinact [5] |
| --- | --- | --- | --- | --- | --- |
| CC(C)[C@H](NC(=O)OCc1ccc(Cl)cc1)C(=O)NC(CC(=O)O)C(=O)CF (stereo partly drawn) [4-ClCbz-Val-Asp-fmk] | 69 × 1000 M^−1s^−1 | 1980 nM | 175 × 1000 M^−1s^−1 |  |  |
| O=C(O)CC(NC(=O)C1CCCN1C(=O)OCc1ccccc1)C(=O)CF (stereo not drawn) [Cbz-Pro-Asp-fmk] (Cbz-Pro-Asp-CH2F; configuration not given here) | 7.5 × 1000 M^−1s^−1 | 2780 nM | 15.5 × 1000 M^−1s^−1 | > 10000 nM |  |
| O=C(O)CC(NC(=O)C1CSCN1C(=O)OCc1ccccc1)C(=O)CF (stereo not drawn) [Cbz-Thz-Asp-fmk] (Cbz-[Thz]-Asp-CH2F; configuration not given here) | 227.5 × 1000 M^−1s^−1 | 1560 nM | 12 × 1000 M^−1s^−1 | 2310 nM |  |
| O=C(O)CC(NC(=O)[C@@H]1CCc2ccccc2N1C(=O)OCc1ccccc1)C(=O)CF (stereo partly drawn) [Example 3, [3S/R,(2S)]-3-(1-Benzyloxycarbonyl-1,2,3,4-tetrahydro-quinolinyl-2-carboxamido)-5-fluoro-4-oxo-pentanoic acid] | 318 × 1000 M^−1s^−1 |  | 122 × 1000 M^−1s^−1 | 1150 nM | 239.5 × 1000 M^−1s^−1 |
| O=C(O)CC(NC(=O)[C@@H]1CCCCN1C(=O)OCc1cccc(Cl)c1)C(=O)CF (stereo partly drawn) [Example 5, [3S/R,(2S)]-3-(1-(3-Chlorobenzyloxycarbonyl)-2-piperidinecarboxamido)-5-fluoro-4-oxo-pentanoic acid] |  |  |  | 500 nM |  |
| O=C(O)CC(NC(=O)[C@@H]1CCCCN1C(=O)OCc1cc(Cl)ccc1Cl)C(=O)CF (stereo partly drawn) [Example 23, [3S/R,(2S)]-5-Fluoro-3-(1-(2,5-dichlorobenzyloxycarbonyl)-2-piperidinecarboxamido)-4-oxo-pentanoic acid] |  | 336 nM |  |  |  |
| O=C(O)CC(NC(=O)[C@@H]1CCCCN1C(=O)O[C@H](c1cccc(Cl)c1)C(F)(F)F)C(=O)CF (stereo partly drawn) [Example 34] | 518 × 1000 M^−1s^−1 | 463 nM | 839 × 1000 M^−1s^−1 |  | 181 × 1000 M^−1s^−1 |
